Experiments:
Assay in all cases: relative viability (nuclei count vs DMSO), 5 days (fraction); higher = more cells survive
Avagacestat = compound: NC(=O)[C@@H](CCC(F)(F)F)N(Cc1ccc(-c2ncon2)cc1F)S(=O)(=O)c1ccc(Cl)cc1 [Avagacestat]
In short: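 Five library-drug doses, separated by factors of √10, were pinned into 1536-well plates holding lung cancer cell lines after an overnight stay at 37 °C. Cells were fixed, permeabilised and Hoechst-stained in one step after 5 days without medium change, then imaged at 4×. Viability compares treated-well with vehicle-well nuclei, counted in MetaXpress, as a median across plates. Passing plates had control CV below 25% and at least one doubling.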

Avagacestat + Trametinib = compound: NC(=O)[C@@H](CCC(F)(F)F)N(Cc1ccc(-c2ncon2)cc1F)S(=O)(=O)c1ccc(Cl)cc1 [Avagacestat] + CC(=O)Nc1cccc(-n2c(=O)n(C3CC3)c(=O)c3c(Nc4ccc(I)cc4F)n(C)c(=O)c(C)c32)c1 [Trametinib] (partner 0.02 µM)
In short: (§1)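 Relative viability was taken as the ratio of nuclei in treated wells to nuclei in vehicle wells. Lung cancer cell lines in 1536-well plates received compounds by pin tool one day after seeding, either one drug alone or a fixed anchor-drug dose plus five library-drug doses (not always all listed) in √10 steps. Nuclei were counted on 4× images after 5 days of treatment, and values are medians of duplicate plates.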

[1] = compound: NC(=O)[C@@H](CCC(F)(F)F)N(Cc1ccc(-c2ncon2)cc1F)S(=O)(=O)c1ccc(Cl)cc1 [Avagacestat] + CC(=O)c1c(C)c2cnc(Nc3ccc(N4CCNCC4)cn3)nc2n(C2CCCC2)c1=O [Palbociclib] (partner 0.5 µM)
In short: as §1

Avagacestat + Luminespib = compound: NC(=O)[C@@H](CCC(F)(F)F)N(Cc1ccc(-c2ncon2)cc1F)S(=O)(=O)c1ccc(Cl)cc1 [Avagacestat] + CCNC(=O)c1noc(-c2cc(C(C)C)c(O)cc2O)c1-c1ccc(CN2CCOCC2)cc1 [Luminespib] (partner 0.01 µM)
In short: as §1

Avagacestat + OSI-027 = compound: NC(=O)[C@@H](CCC(F)(F)F)N(Cc1ccc(-c2ncon2)cc1F)S(=O)(=O)c1ccc(Cl)cc1 [Avagacestat] + COc1cccc2cc(-c3nc([C@H]4CC[C@H](C(=O)O)CC4)n4ncnc(N)c34)[nH]c12 [OSI-027] (partner 0.5 µM)
In short: as §1

Avagacestat + Tozasertib = compound: NC(=O)[C@@H](CCC(F)(F)F)N(Cc1ccc(-c2ncon2)cc1F)S(=O)(=O)c1ccc(Cl)cc1 [Avagacestat] + Cc1cc(Nc2cc(N3CCN(C)CC3)nc(Sc3ccc(NC(=O)C4CC4)cc3)n2)n[nH]1 [Tozasertib] (partner 0.1 µM)
In short: as §1

Avagacestat + Dasatinib = compound: NC(=O)[C@@H](CCC(F)(F)F)N(Cc1ccc(-c2ncon2)cc1F)S(=O)(=O)c1ccc(Cl)cc1 [Avagacestat] + Cc1nc(Nc2ncc(C(=O)Nc3c(C)cccc3Cl)s2)cc(N2CCN(CCO)CC2)n1 [Dasatinib] (partner 0.075 µM)
In short: as §1

Avagacestat + Phenformin = compound: NC(=O)[C@@H](CCC(F)(F)F)N(Cc1ccc(-c2ncon2)cc1F)S(=O)(=O)c1ccc(Cl)cc1 [Avagacestat] + N=C(N)NC(=N)NCCc1ccccc1 [Phenformin] (partner 250 µM)
In short: as §1

Avagacestat + AZD7762 = compound: NC(=O)[C@@H](CCC(F)(F)F)N(Cc1ccc(-c2ncon2)cc1F)S(=O)(=O)c1ccc(Cl)cc1 [Avagacestat] + NC(=O)Nc1cc(-c2cccc(F)c2)sc1C(=O)N[C@H]1CCCNC1 [AZD7762] (partner 0.2 µM)
In short: as §1

Avagacestat + Pemetrexed = compound: NC(=O)[C@@H](CCC(F)(F)F)N(Cc1ccc(-c2ncon2)cc1F)S(=O)(=O)c1ccc(Cl)cc1 [Avagacestat] + Nc1nc2[nH]cc(CCc3ccc(C(=O)N[C@@H](CCC(=O)O)C(=O)O)cc3)c2c(=O)[nH]1 [Pemetrexed] (partner 0.2 µM)
In short: as §1

Avagacestat + Decitabine = compound: NC(=O)[C@@H](CCC(F)(F)F)N(Cc1ccc(-c2ncon2)cc1F)S(=O)(=O)c1ccc(Cl)cc1 [Avagacestat] + Nc1ncn([C@H]2C[C@H](O)[C@@H](CO)O2)c(=O)n1 [Decitabine] (partner 2 µM)
In short: as §1

Avagacestat + Vorinostat = compound: NC(=O)[C@@H](CCC(F)(F)F)N(Cc1ccc(-c2ncon2)cc1F)S(=O)(=O)c1ccc(Cl)cc1 [Avagacestat] + O=C(CCCCCCC(=O)Nc1ccccc1)NO [Vorinostat] (partner 1 µM)
In short: as §1

Avagacestat + Olaparib = compound: NC(=O)[C@@H](CCC(F)(F)F)N(Cc1ccc(-c2ncon2)cc1F)S(=O)(=O)c1ccc(Cl)cc1 [Avagacestat] + O=C(c1cc(Cc2n[nH]c(=O)c3ccccc23)ccc1F)N1CCN(C(=O)C2CC2)CC1 [Olaparib] (partner 8 µM)
In short: as §1

Avagacestat + Foretinib = compound: NC(=O)[C@@H](CCC(F)(F)F)N(Cc1ccc(-c2ncon2)cc1F)S(=O)(=O)c1ccc(Cl)cc1 [Avagacestat] + COc1cc2c(Oc3ccc(NC(=O)C4(C(=O)Nc5ccc(F)cc5)CC4)cc3F)ccnc2cc1OCCCN1CCOCC1 [Foretinib] (partner 0.25 µM)
In short: as §1

NCI-H522
relative viability (Avagacestat; 0.08 µM): 0.922
relative viability (Avagacestat; 0.253 µM): 1.04
relative viability (Avagacestat; 0.8 µM): 0.969
relative viability (Avagacestat; 2.53 µM): 1.12
relative viability (Avagacestat; 8 µM): 0.938
relative viability (Avagacestat + Trametinib; first compound 0.08 µM): 0.748
relative viability (Avagacestat + Trametinib; first compound 0.253 µM): 0.74
relative viability (Avagacestat + Trametinib; first compound 0.8 µM): 0.734
relative viability (Avagacestat + Trametinib; first compound 2.53 µM): 0.72
relative viability (Avagacestat + Trametinib; first compound 8 µM): 0.795
relative viability ([1]; first compound 0.08 µM): 1.13
relative viability ([1]; first compound 0.253 µM): 1.2
relative viability ([1]; first compound 0.8 µM): 1.08
relative viability ([1]; first compound 2.53 µM): 0.954
relative viability ([1]; first compound 8 µM): 0.946
relative viability (Avagacestat + Luminespib; first compound 0.08 µM): 1.08
relative viability (Avagacestat + Luminespib; first compound 0.253 µM): 1.12
relative viability (Avagacestat + Luminespib; first compound 0.8 µM): 1.03
relative viability (Avagacestat + Luminespib; first compound 2.53 µM): 1.21
relative viability (Avagacestat + Luminespib; first compound 8 µM): 1.15
relative viability (Avagacestat + OSI-027; first compound 0.08 µM): 0.823
relative viability (Avagacestat + OSI-027; first compound 0.253 µM): 0.728
relative viability (Avagacestat + OSI-027; first compound 0.8 µM): 0.655
relative viability (Avagacestat + OSI-027; first compound 2.53 µM): 0.689
relative viability (Avagacestat + OSI-027; first compound 8 µM): 0.725
relative viability (Avagacestat + Tozasertib; first compound 0.08 µM): 0.559
relative viability (Avagacestat + Tozasertib; first compound 0.253 µM): 0.593
relative viability (Avagacestat + Tozasertib; first compound 0.8 µM): 0.579
relative viability (Avagacestat + Tozasertib; first compound 2.53 µM): 0.517
relative viability (Avagacestat + Tozasertib; first compound 8 µM): 0.479
relative viability (Avagacestat + Dasatinib; first compound 0.08 µM): 0.942
relative viability (Avagacestat + Dasatinib; first compound 0.253 µM): 0.886
relative viability (Avagacestat + Dasatinib; first compound 0.8 µM): 0.861
relative viability (Avagacestat + Dasatinib; first compound 2.53 µM): 0.927
relative viability (Avagacestat + Dasatinib; first compound 8 µM): 1.07
relative viability (Avagacestat + Phenformin; first compound 0.08 µM): 0.71
relative viability (Avagacestat + Phenformin; first compound 0.253 µM): 0.59
relative viability (Avagacestat + Phenformin; first compound 0.8 µM): 0.669
relative viability (Avagacestat + Phenformin; first compound 2.53 µM): 0.641
relative viability (Avagacestat + Phenformin; first compound 8 µM): 0.649
relative viability (Avagacestat + AZD7762; first compound 0.08 µM): 0.768
relative viability (Avagacestat + AZD7762; first compound 0.253 µM): 0.82
relative viability (Avagacestat + AZD7762; first compound 0.8 µM): 0.807
relative viability (Avagacestat + AZD7762; first compound 2.53 µM): 0.843
relative viability (Avagacestat + AZD7762; first compound 8 µM): 0.985
relative viability (Avagacestat + Pemetrexed; first compound 0.08 µM): 0.933
relative viability (Avagacestat + Pemetrexed; first compound 0.253 µM): 1.27
relative viability (Avagacestat + Pemetrexed; first compound 0.8 µM): 0.774
relative viability (Avagacestat + Pemetrexed; first compound 2.53 µM): 1.04
relative viability (Avagacestat + Pemetrexed; first compound 8 µM): 1.07
relative viability (Avagacestat + Decitabine; first compound 0.08 µM): 0.782
relative viability (Avagacestat + Decitabine; first compound 0.253 µM): 0.674
relative viability (Avagacestat + Decitabine; first compound 0.8 µM): 0.681
relative viability (Avagacestat + Decitabine; first compound 2.53 µM): 0.606
relative viability (Avagacestat + Decitabine; first compound 8 µM): 0.614
relative viability (Avagacestat + Vorinostat; first compound 0.08 µM): 1.04
relative viability (Avagacestat + Vorinostat; first compound 0.253 µM): 1.01
relative viability (Avagacestat + Vorinostat; first compound 0.8 µM): 0.928
relative viability (Avagacestat + Vorinostat; first compound 2.53 µM): 0.866
relative viability (Avagacestat + Vorinostat; first compound 8 µM): 0.792
relative viability (Avagacestat + Olaparib; first compound 0.08 µM): 0.566
relative viability (Avagacestat + Olaparib; first compound 0.253 µM): 0.715
relative viability (Avagacestat + Olaparib; first compound 0.8 µM): 0.656
relative viability (Avagacestat + Olaparib; first compound 2.53 µM): 0.691
relative viability (Avagacestat + Olaparib; first compound 8 µM): 0.621

NCI-H1623
relative viability (Avagacestat; 0.08 µM): 1.02
relative viability (Avagacestat; 0.253 µM): 0.935
relative viability (Avagacestat; 0.8 µM): 1.1
relative viability (Avagacestat; 2.53 µM): 0.921
relative viability (Avagacestat; 8 µM): 1
relative viability (Avagacestat + Luminespib; first compound 0.08 µM): 0.491
relative viability (Avagacestat + Luminespib; first compound 0.253 µM): 0.484
relative viability (Avagacestat + Luminespib; first compound 0.8 µM): 0.913
relative viability (Avagacestat + Luminespib; first compound 2.53 µM): 0.609
relative viability (Avagacestat + Luminespib; first compound 8 µM): 0.475
relative viability (Avagacestat + Foretinib; first compound 0.08 µM): 0.879
relative viability (Avagacestat + Foretinib; first compound 0.253 µM): 0.95
relative viability (Avagacestat + Foretinib; first compound 0.8 µM): 1.08
relative viability (Avagacestat + Foretinib; first compound 2.53 µM): 0.813
relative viability (Avagacestat + Foretinib; first compound 8 µM): 0.86
relative viability (Avagacestat + OSI-027; first compound 0.08 µM): 0.437
relative viability (Avagacestat + OSI-027; first compound 0.253 µM): 0.454
relative viability (Avagacestat + OSI-027; first compound 0.8 µM): 0.508
relative viability (Avagacestat + OSI-027; first compound 2.53 µM): 0.424
relative viability (Avagacestat + OSI-027; first compound 8 µM): 0.47
relative viability (Avagacestat + Tozasertib; first compound 0.08 µM): 0.448
relative viability (Avagacestat + Tozasertib; first compound 0.253 µM): 0.446
relative viability (Avagacestat + Tozasertib; first compound 0.8 µM): 0.456
relative viability (Avagacestat + Tozasertib; first compound 2.53 µM): 0.46
relative viability (Avagacestat + Tozasertib; first compound 8 µM): 0.445
relative viability (Avagacestat + Dasatinib; first compound 0.08 µM): 0.525
relative viability (Avagacestat + Dasatinib; first compound 0.253 µM): 0.567
relative viability (Avagacestat + Dasatinib; first compound 0.8 µM): 0.575
relative viability (Avagacestat + Dasatinib; first compound 2.53 µM): 0.511
relative viability (Avagacestat + Dasatinib; first compound 8 µM): 0.577
relative viability (Avagacestat + Phenformin; first compound 0.08 µM): 0.576
relative viability (Avagacestat + Phenformin; first compound 0.253 µM): 0.603
relative viability (Avagacestat + Phenformin; first compound 0.8 µM): 0.614
relative viability (Avagacestat + Phenformin; first compound 2.53 µM): 0.577
relative viability (Avagacestat + Phenformin; first compound 8 µM): 0.63

Source: the supplement of paper PMC10307832
